According to ChEMBL document CHEMBL1201862, “PubChem BioAssay data set” (2004):
The source made the active and inactive calls.

Experiments:
[1] = target: Serine/threonine-protein phosphatase PP1-alpha catalytic subunit (Homo sapiens, UniProt P62136); experiment: inhibition of protein phosphatase 1 activity – biochemical, fluorescence, dose response (AID 2394)
[2] = Luminescence Cell-Based Dose Confirmation HTS to Identify Activators of 5'UTR Stem-Loop Driven Alpha-Synuclein mRNA Translation in H4 Neuroglioblastoma Cells. [Related pubchem assays: 1829 (Project Summary), 1814 (Primary HTS)]; type: functional
[3] = Luminescence Cell-Based Dose Response HTS to Identify Activators of Luciferase Translation or Activity in H4 […] Cells. [Related pubchem assays: 1829 (Project Summary), 1814 (Primary HTS)]; type: functional
SUMO-activating enzyme [4] = target: T1, SUMO-activating enzyme (Homo sapiens, UniProt Q9UBT2); experiment: blockers of UBC9-mediated SUMO conjugation – biochemical, AlphaScreen, SUMOylation inhibitor project, confirmation (AID 2018); type: functional
H4 = experiment: Luminescence Cell-Based Dose Response HTS to Identify Activators of 5'UTR Stem-Loop Driven Prion Protein mRNA Translation in H4 Neuroglioblastoma Cells. [Related pubchem assays: 1829 (Project Summary), 1814 (Primary HTS)]; type: functional; details: Homo sapiens
SUMO-activating enzyme [5] = target: T1, SUMO-activating enzyme; experiment: blockers of SAE1/SAE2–UBC9 SUMO transfer – biochemical, HTRF, uHTS, primary screen (AID 2006); type: protein-complex assay
[6] = target: T2, Serine/threonine-protein phosphatase (Homo sapiens, UniProt Q9BPW0); experiment: inhibition of protein phosphatase 5 activity – biochemical, fluorescence, dose response (AID 2395)
T2 sequence (Q9BPW0 whole entry): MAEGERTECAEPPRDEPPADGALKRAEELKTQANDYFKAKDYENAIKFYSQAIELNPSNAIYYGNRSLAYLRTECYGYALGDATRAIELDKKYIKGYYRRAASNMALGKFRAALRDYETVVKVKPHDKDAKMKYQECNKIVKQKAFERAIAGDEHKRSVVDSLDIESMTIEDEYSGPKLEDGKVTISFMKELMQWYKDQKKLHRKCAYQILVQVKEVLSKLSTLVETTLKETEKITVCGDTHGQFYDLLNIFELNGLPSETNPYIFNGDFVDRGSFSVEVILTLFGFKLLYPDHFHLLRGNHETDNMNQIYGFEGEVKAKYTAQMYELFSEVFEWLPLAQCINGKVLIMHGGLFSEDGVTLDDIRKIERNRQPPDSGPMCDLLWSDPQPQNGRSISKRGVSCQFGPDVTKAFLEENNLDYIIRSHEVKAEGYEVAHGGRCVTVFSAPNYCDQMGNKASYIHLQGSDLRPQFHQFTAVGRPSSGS

[7] = target: T3, Replicative DNA helicase DnaB (Mycobacterium tuberculosis, UniProt P9WMR3); experiment: DnaB intein splicing inhibitors, dose response, biochemical, cell-free fluorescence (AID 449749); type: functional
T3 sequence (P9WMR3 whole entry): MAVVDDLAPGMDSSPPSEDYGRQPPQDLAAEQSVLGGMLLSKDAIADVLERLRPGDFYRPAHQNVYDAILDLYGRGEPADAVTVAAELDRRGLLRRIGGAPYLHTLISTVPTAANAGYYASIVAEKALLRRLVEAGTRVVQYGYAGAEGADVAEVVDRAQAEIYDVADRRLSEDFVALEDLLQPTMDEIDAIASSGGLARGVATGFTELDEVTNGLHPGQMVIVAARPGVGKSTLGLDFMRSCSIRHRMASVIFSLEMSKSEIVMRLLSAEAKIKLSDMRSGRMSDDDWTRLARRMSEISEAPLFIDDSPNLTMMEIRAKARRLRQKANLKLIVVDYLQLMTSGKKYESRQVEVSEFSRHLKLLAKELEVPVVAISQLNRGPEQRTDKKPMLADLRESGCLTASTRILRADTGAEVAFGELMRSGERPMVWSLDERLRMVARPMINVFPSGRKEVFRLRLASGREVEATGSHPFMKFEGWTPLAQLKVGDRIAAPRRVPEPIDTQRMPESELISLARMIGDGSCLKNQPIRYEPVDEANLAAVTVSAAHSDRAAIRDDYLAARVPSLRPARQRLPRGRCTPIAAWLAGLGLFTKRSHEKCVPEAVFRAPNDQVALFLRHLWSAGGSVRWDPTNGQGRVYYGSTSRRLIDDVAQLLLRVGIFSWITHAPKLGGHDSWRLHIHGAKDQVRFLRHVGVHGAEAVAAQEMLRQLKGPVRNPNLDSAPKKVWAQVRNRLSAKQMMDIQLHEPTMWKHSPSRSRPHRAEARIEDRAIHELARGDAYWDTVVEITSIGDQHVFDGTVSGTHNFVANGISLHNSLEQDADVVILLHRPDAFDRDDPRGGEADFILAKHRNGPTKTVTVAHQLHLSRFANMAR

Protein RecA = target: T4, Protein RecA (Mycobacterium tuberculosis, UniProt P9WHJ3); experiment: Fluorescence Cell-Free Homogeneous Dose Retest to Identify Inhibitors of RecA-Intein Splicing Activity. [Related pubchem assays (depositor defined):AID2097, AID2223, AID489010, AID492950]; type: functional
T4 sequence (P9WHJ3 whole entry): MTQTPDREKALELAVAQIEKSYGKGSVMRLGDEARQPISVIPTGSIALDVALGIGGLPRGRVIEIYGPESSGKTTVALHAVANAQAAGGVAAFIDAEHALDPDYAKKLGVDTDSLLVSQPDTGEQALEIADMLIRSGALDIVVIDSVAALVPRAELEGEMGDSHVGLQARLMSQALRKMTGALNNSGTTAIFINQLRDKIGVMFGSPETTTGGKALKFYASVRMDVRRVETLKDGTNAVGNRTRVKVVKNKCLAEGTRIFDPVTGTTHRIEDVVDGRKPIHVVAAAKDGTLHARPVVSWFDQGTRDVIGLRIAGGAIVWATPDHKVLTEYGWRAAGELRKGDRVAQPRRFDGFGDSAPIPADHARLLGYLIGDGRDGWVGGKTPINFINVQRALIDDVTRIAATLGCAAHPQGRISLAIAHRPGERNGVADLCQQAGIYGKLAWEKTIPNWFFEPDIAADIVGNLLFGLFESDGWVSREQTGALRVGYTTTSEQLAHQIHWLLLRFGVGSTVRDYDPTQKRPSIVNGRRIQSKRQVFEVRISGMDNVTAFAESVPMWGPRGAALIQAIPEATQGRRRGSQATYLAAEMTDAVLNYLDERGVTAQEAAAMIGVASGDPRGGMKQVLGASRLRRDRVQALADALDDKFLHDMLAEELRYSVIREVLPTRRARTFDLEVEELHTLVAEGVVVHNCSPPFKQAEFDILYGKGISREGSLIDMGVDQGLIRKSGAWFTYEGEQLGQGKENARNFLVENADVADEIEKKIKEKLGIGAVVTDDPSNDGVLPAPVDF

Bcl-2-like protein 10 = target: T5, Bcl-2-like protein 10 (Homo sapiens, UniProt Q9HD36); experiment: Bcl-B/TR3 peptide binding disruption – biochemical, fluorescence polarization, FITC-TR3 peptide, selectivity assay for Bfl-1 inhibitor project, primary screen (AID 748);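 also: fluorescence polarization from a fluorescein-labelled TR3 peptide binding purified Bcl-B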
T5 sequence (Q9HD36 whole entry): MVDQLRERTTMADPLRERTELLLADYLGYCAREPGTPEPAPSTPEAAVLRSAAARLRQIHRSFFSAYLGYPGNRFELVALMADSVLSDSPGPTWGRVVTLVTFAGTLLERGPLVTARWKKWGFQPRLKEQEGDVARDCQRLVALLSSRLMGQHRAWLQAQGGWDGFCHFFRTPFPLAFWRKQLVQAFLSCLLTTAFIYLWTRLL

[8] = target: T6, Apoptotic protease-activating factor 1 (Homo sapiens, UniProt O14727); type: functional
T6 sequence (O14727 whole entry): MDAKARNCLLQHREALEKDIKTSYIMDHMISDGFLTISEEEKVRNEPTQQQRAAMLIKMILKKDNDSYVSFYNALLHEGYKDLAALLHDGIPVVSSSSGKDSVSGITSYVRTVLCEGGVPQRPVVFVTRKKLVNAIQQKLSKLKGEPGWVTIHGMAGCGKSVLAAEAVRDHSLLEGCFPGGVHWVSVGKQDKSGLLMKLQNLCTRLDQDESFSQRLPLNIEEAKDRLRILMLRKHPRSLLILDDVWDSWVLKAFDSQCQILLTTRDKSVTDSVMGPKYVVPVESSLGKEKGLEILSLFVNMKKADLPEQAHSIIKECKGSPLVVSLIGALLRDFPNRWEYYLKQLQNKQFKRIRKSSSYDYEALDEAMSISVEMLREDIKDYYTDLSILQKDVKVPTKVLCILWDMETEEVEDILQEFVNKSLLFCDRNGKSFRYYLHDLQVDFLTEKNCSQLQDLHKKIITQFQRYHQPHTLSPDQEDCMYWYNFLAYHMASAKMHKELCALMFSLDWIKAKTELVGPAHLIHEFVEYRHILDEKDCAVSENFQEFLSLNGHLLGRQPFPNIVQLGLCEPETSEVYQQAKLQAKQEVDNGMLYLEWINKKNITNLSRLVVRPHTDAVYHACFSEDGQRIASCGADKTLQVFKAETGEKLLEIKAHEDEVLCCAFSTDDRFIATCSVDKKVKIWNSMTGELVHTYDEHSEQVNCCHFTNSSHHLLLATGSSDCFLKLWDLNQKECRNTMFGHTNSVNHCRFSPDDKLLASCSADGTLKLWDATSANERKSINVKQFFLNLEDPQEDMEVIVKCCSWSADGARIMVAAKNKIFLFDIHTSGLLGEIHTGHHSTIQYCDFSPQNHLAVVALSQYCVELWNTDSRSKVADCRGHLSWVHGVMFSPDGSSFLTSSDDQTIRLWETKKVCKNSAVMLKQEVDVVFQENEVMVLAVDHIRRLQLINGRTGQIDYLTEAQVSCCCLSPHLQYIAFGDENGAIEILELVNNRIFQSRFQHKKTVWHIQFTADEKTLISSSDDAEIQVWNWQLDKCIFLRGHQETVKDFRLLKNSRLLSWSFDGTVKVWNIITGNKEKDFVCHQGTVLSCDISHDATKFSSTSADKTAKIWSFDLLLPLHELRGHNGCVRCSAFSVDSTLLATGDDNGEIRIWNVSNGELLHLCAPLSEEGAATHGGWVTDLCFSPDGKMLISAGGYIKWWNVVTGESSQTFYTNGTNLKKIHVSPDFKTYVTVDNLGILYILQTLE

Genome polyprotein = Genome polyprotein (dengue virus type 2, UniProt P29990); experiment: flavivirus cap methylation enzyme inhibition – biochemical, confirmation dose response, primary screen (AID 588689); type: functional
[9] = Trypanosoma cruzi growth suppression in host cells – NIH3T3 host cells, beta-gal luminescence, confirmation (AID 2044); type: functional, cell-based;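 also: intracellular parasites grown in NIH/3T3 mouse fibroblasts as host cells; luminescent beta-galactosidase reporter signal from transgenic T. cruzi replicating inside host cells; inhibitors lower the luminescence signal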
[10] = NIH3T3 cell viability loss – ATP luminescence, mouse fibroblasts, counter-screen, dose response (AID 2010); type: functional, cell-based;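 also: cells exposed to compound for about 90 hours before reading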
Estrogen receptor beta [11] = target: T7, Estrogen receptor beta (Homo sapiens, UniProt Q92731);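 also: recombinant ER-beta bound to coactivator SRC1 peptide in presence of estradiol agonist; inhibitors block coactivator peptide binding and lower the FRET signal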
Estrogen receptor beta [12] = target: T7, Estrogen receptor beta; experiment: blockers of SRC-3 recruitment to ERβ – biochemical, ELISA, streptavidin-HRP readout, orthogonal assay, confirmation (AID 1060)
Mucolipin-3 = target: T8, Mucolipin-3 (Homo sapiens, UniProt Q8TDD5); experiment: Dose response cell-based high-throughput screening assay for agonists of the transient receptor potential channel ML3 (TRPML3). [Related pubchem assays: 1526, 1424, 1448 ]; type: functional
T8 sequence (Q8TDD5 whole entry): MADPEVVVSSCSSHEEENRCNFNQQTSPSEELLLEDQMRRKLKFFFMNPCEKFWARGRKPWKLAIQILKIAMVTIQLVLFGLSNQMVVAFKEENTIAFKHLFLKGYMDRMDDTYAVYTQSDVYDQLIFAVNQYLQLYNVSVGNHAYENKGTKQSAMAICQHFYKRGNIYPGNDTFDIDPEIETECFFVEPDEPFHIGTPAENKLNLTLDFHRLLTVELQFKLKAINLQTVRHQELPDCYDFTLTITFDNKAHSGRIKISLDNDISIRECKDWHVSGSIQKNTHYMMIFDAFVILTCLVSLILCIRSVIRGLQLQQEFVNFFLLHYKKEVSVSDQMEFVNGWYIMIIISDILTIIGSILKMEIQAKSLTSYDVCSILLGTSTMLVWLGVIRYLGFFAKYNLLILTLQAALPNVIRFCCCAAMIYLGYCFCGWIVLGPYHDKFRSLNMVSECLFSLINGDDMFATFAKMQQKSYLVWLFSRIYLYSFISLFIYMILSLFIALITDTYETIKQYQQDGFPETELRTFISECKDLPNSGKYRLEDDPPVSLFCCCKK

Ion channel NompC = Ion channel NompC (Danio rerio, UniProt Q7T1G6); experiment: Fluorescence counterscreen assay for TRPML3 agonists: dose response cell-based high-throughput screening assay to identify agonists of the transient receptor potential channel N1 (TRPN1). [Related pubchem assays: 1526, 1424, 1448 ]; type: functional
Ion channel NompC, sequence (Q7T1G6 whole entry): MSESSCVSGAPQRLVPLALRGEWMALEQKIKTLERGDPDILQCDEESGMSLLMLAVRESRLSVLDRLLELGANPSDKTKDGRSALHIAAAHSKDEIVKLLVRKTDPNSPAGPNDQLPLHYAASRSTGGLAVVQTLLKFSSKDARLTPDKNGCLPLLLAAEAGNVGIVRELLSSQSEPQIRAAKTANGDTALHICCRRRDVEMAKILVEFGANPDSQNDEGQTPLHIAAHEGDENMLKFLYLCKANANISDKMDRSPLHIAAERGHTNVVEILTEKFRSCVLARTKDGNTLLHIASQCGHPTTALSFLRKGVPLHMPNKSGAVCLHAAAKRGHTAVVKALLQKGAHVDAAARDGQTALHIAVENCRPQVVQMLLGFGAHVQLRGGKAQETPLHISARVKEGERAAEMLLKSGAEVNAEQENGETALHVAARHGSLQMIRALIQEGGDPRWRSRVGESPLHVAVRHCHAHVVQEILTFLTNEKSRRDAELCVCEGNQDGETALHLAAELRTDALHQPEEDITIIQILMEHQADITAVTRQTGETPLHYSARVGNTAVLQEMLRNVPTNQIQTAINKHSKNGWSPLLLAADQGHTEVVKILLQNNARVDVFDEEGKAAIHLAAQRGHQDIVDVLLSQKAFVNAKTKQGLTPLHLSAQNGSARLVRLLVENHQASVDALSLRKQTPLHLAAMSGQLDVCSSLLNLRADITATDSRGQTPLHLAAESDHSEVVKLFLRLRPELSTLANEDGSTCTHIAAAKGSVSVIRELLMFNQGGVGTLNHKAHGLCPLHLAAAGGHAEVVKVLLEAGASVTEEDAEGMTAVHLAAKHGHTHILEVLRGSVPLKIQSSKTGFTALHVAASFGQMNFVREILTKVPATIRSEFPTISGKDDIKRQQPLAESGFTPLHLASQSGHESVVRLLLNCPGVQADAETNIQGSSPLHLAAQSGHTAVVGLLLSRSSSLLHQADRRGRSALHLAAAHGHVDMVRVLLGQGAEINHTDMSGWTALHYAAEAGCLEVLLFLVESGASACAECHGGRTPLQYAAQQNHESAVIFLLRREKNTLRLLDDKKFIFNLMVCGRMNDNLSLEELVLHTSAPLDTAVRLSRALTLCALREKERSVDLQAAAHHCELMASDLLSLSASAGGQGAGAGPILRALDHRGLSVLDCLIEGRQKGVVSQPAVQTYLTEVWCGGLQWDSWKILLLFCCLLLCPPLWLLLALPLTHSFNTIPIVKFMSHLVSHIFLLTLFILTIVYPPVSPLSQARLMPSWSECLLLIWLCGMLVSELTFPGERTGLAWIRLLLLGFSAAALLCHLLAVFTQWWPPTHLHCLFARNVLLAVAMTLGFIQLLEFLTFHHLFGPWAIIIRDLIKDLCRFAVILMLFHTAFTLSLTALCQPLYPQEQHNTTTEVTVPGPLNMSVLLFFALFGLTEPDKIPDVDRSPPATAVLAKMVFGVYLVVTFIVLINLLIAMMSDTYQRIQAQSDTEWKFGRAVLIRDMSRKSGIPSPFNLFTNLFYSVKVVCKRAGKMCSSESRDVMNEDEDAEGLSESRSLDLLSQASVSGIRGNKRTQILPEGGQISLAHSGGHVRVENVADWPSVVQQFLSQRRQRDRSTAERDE

T7 sequence (Q92731 whole entry): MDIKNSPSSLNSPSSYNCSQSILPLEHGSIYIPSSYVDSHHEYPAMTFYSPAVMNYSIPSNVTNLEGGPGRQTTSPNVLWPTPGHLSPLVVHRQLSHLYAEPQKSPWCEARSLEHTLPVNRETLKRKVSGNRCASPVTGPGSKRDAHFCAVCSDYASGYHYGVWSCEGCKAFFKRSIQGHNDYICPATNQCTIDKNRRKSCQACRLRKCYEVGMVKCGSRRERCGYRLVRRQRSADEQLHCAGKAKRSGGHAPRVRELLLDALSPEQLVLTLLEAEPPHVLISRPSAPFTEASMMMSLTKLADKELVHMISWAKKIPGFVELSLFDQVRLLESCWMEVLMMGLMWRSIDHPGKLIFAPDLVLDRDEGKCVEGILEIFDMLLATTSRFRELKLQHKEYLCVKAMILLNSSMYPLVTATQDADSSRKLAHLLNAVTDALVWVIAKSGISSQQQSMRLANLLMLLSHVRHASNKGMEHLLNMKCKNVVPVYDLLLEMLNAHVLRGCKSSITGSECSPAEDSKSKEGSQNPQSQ
T1 sequence (Q9UBE0 whole entry): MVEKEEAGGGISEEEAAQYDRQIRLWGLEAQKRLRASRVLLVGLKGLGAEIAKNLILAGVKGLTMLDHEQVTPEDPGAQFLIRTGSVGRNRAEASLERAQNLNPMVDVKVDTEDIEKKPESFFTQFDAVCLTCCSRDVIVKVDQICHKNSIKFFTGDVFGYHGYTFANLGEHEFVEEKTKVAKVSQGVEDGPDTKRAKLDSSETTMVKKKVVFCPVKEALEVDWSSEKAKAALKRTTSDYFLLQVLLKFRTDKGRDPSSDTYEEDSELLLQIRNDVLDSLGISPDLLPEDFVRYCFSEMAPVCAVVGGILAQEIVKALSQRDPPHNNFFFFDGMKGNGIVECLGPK
T1 sequence (Q9UBT2 whole entry): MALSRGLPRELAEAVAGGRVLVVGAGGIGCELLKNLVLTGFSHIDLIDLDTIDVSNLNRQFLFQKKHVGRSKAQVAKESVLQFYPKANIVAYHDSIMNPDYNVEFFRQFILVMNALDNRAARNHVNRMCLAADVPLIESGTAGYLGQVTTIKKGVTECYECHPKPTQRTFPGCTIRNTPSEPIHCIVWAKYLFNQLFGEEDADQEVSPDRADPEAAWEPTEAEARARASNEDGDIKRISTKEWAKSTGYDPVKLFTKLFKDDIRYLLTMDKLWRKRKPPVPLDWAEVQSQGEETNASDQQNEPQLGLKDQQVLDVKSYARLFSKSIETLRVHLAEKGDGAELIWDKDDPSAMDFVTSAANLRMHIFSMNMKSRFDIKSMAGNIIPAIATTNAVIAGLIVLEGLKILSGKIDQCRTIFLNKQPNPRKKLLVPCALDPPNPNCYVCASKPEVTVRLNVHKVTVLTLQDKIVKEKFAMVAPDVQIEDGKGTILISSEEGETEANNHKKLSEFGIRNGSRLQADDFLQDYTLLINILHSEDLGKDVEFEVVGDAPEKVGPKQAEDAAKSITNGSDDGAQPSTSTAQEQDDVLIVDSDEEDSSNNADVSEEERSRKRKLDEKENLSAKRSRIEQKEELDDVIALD
Serine/threonine-protein phosphatase PP1-alpha catalytic subunit, sequence (P62136 whole entry): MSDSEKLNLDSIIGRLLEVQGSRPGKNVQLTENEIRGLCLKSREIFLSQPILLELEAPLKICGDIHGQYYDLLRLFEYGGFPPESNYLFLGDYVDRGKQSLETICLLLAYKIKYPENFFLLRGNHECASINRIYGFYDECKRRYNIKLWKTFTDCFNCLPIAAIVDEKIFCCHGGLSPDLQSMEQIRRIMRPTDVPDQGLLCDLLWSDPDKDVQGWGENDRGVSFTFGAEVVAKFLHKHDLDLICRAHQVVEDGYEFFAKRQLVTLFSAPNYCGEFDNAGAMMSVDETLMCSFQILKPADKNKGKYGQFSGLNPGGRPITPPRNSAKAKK
Genome polyprotein, sequence (P29990 2492-3391 limits assumed): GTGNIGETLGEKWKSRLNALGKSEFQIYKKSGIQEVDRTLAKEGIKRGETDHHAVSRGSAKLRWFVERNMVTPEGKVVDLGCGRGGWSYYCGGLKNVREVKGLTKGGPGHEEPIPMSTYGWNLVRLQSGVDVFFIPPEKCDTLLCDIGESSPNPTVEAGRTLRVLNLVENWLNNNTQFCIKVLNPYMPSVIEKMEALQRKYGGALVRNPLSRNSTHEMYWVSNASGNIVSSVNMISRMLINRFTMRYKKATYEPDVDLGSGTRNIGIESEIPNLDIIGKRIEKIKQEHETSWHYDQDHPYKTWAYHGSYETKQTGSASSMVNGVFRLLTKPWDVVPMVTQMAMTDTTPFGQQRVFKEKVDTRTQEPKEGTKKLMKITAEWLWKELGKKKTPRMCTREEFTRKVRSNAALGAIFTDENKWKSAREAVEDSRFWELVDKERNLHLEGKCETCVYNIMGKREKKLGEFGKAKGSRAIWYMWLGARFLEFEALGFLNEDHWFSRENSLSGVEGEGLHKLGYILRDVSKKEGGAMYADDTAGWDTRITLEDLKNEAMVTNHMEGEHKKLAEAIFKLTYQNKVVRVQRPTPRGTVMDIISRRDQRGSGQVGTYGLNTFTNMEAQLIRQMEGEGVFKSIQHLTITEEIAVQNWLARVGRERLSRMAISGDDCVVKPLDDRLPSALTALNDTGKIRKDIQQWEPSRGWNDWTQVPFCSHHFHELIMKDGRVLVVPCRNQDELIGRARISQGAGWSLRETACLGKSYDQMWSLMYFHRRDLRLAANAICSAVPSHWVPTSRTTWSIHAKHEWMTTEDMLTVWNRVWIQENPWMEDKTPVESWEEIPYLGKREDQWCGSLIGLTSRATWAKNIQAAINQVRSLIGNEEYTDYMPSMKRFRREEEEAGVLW

O=C1c2ccccc2C(=O)C12OC2c1ccc(Cl)cc1 (stereo unspecified)
IC50 [1]: > 67 µM (not active)
EC50 [2]: > 120 µM (not active)
EC50 [3]: > 120 µM (not active)
IC50 (SUMO-activating enzyme [4]): 7.05 µM (active)
EC50 (H4): > 120 µM (not active)
IC50 (SUMO-activating enzyme [5]): 21.2 µM (active)
IC50 [6]: > 2.48 µM (active)
AC50 [7]: 1.61 µM (active)
EC50 (Protein RecA): 22.2 µM (inconclusive)

Nc1cc2nsnc2cc1Br
IC50 [1]: > 67 µM (not active)
IC50 (Bcl-2-like protein 10): 13.3 µM (active)
IC50 [6]: > 2.48 µM (active)
IC50 [8]: 3.21 µM (active)
IC50 (Genome polyprotein): 48.7 µM (active)

Cc1ccc(SCCOCCN2CCc3ccccc3C2)cc1
EC50 [9]: < 100 nM (active)
EC50 [10]: > 60 µM (not active)
EC50 (cells): 37 nM (active)

O=C(CNC1CCN(Cc2ccccc2)CC1)Nc1ccc(S(=O)(=O)N2CCCCC2)cc1
EC50 [9]: < 100 nM (active)
EC50 [10]: > 30 µM (not active)
EC50 (cells): 19 nM (active)

Oc1c2c(nc3ccccc13)C(=C1CCCC1)CC2
IC50 (Estrogen receptor beta [11]): 1.69 µM (active)
IC50 (Estrogen receptor beta [12]): > 109 µM (not active)

CCOC(=O)c1cnn(-c2nc(SC)nc3sc4c(c23)CCC4)c1N
IC50 (Estrogen receptor beta [11]): > 50 µM (not active)
IC50 (Estrogen receptor beta [12]): 0.069 µM (not active)

O=C1CCCN1CC#CCN1CCCC1 [OXOTREMORINE]
EC50 (Mucolipin-3): > 29.9 µM (not active)
EC50 (Ion channel NompC): > 29.9 µM (not active)
